How the values were obtained:
Settings in all cases: 72 h
KCL-22 = experiment: cell viability (% survival relative to DMSO control, bortezomib = 0%); higher = less cytotoxic
How it was run: (§1)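 Fifteen myeloid leukaemia cell lines (10 AML, 5 CML) were seeded at a density titrated to the linear growth range into 384-well plates pre-printed with compounds at 1, 10, 100, 1000 or 10000 nM in duplicate. Plates were incubated for 72 h at 37 °C with 5% CO2. Viability was then read by CellTiter-Glo luminescence. Each value is percent survival averaged over the duplicates, with vehicle set to 100% and a 10 µM positive control to 0%.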

MV4-11 [1] = experiment: as above
How it was run: as §1

BV-173 = experiment: as above
How it was run: as §1

SHI-1 = experiment: as above
How it was run: as §1

HL-60 [2] = experiment: as above
How it was run: as §1

KG-1 = experiment: as above
How it was run: as §1

NOMO-1 [3] = experiment: as above
How it was run: as §1

LAMA-84 = experiment: as above
How it was run: as §1

Mono-Mac-6 [4] = experiment: as above
How it was run: as §1

THP-1 = experiment: as above
How it was run: as §1

K-562 [5] = experiment: as above
How it was run: as §1

HEL = experiment: as above
How it was run: as §1

KU-812 [6] = experiment: as above
How it was run: as §1

MOLM-13 = experiment: as above
How it was run: as §1

ML-2 = experiment: as above
How it was run: as §1

HL-60 [7] = experiment: cell viability (% survival relative to DMSO control); higher = less cytotoxic
How it was run: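 For each screen, HL-60 cells in RPMI 1640 with 10% FBS carried either DMSO or 100 nM of one of three metabolic inhibitors while the full library was applied at five tenfold concentrations, 1–10,000 nM, in duplicate. Plates were 384-well and were kept 72 h at 37 °C, 5% CO2. Viability, measured by CellTiter-Glo, was normalised to wells with DMSO and with 10 μM proteasome inhibitor. Where area under the curve appears, it was fitted by four-parameter log-logistic models in drc and PharmacoGx.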

MV4-11 [8] = system: MV4-11
How it was run: (§2)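 Seeded in RPMI 1640 at densities within the linear growth range, fifteen myeloid leukaemia cell lines were dispensed into 384-well plates with acoustically pre-printed compounds spanning five tenfold doses from 1 to 10,000 nM, in duplicate. The plates were kept for 72 h at 37 °C in 5% CO2 before luminescent ATP viability was measured and normalised to vehicle and to a positive control at 10 µM. Curves were fitted with a four-parameter log-logistic model. The IC50 was taken from those curves.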

NOMO-1 [9] = system: NOMO-1
How it was run: as §2

Mono-Mac-6 [10] = system: Mono-Mac-6
How it was run: as §2

K-562 [11] = system: K-562
How it was run: as §2

KU-812 [12] = system: KU-812
How it was run: as §2

C=CCN(C)CCCCCCOc1ccc(C(=O)c2ccc(Br)cc2)c(F)c1.O=C(O)/C=C/C(=O)O [Ro 48-8071 fumarate]
cell viability [%]
Settings	1 nM	10 nM	100 nM	1000 nM	10000 nM
BV-173	90.3	86.2	66.2	63.3	29.5
HEL	112	102	102	109	86.7
HL-60 [2]	115	88.4	84.3	98.8	24.7
K-562 [5]	87	104	102	82.2	19.6
KCL-22	99.6	98.6	96.3	87.4	77.5
KG-1	110	101	78.5	80.7	52.3
KU-812 [6]	90.2	92.4	76.2	80.7	43.3
LAMA-84	90.6	100	81.1	83.8	47
ML-2	106	98.5	106	96.4	68.9
MOLM-13	132	113	88.9	89.1	62.2
MV4-11 [1]	91.5	114	84.4	83.4	50.6
Mono-Mac-6 [4]	92.2	87.6	92.4	96	63.8
NOMO-1 [3]	104	97	98.1	105	92.7
SHI-1	103	100	101	105	58.5
THP-1	102	91.7	105	101	80.3

cell viability [%], HL-60 [7]
Settings	0.001 µM	0.01 µM	0.1 µM	1 µM	10 µM
co-treatment: AZD3965 100 nM	99.39	92.3	103	94.9	44.1
co-treatment: DMSO vehicle	99.1	86.3	107	102	75.5
co-treatment: GSK2194069 100 nM	103	68.3	101	104	53
co-treatment: pictilisib 100 nM	113	93.6	99.37	84.2	38.3

Settings	IC50 (cell viability) [µM]
K-562 [11]	2.06
KU-812 [12]	9.97
MV4-11 [8]	5.95
Mono-Mac-6 [10]	> 10
NOMO-1 [9]	> 10

CO[C@H]1C[C@@H]2CC[C@@H](C)[C@@](O)(O2)C(=O)C(=O)N2CCCC[C@H]2C(=O)O[C@H]([C@H](C)C[C@@H]2CC[C@@H](OCCO)[C@H](OC)C2)CC(=O)[C@H](C)/C=C(\C)[C@@H](O)[C@@H](OC)C(=O)[C@H](C)C[C@H](C)/C=C/C=C/C=C/1C [Everolimus]
cell viability [%]
Settings	1 nM	10 nM	100 nM	1000 nM	10000 nM
BV-173	79.3	51.9	56	43.6	34.3
HEL	94.9	65.6	67	62.3	58.5
HL-60 [2]	91.4	75.6	86.3	54.9	43
K-562 [5]	71	50.4	48.8	44.5	30.6
KCL-22	66	44.6	36.2	33.8	24.6
KG-1	54.3	45.1	41	37.3	30.5
KU-812 [6]	58.5	44.9	44.8	39.4	36
LAMA-84	72.2	52.8	62.8	53.7	37.9
ML-2	88.7	77.3	66.6	58.6	33.8
MOLM-13	49	38.1	48.3	29.7	34.6
MV4-11 [1]	62.1	64.6	61.8	53.6	22.6
Mono-Mac-6 [4]	74.2	46.4	53.1	40.7	44.2
NOMO-1 [3]	79.7	63.9	72.7	60.4	56.8
SHI-1	81.8	60.4	65.8	56.7	55.7
THP-1	83.8	67.5	66.9	59.8	58.9

cell viability [%], HL-60 [7]
Settings	0.001 µM	0.01 µM	0.1 µM	1 µM	10 µM
co-treatment: AZD3965 100 nM	100	95.63	97.03	93.2	83.2
co-treatment: DMSO vehicle	84.2	90.5	93.85	98.3	93.8
co-treatment: GSK2194069 100 nM	85.1	88.9	97.9	110.7	88.4
co-treatment: pictilisib 100 nM	78.7	88.7	87.9	89.2	72.1

Settings	IC50 (cell viability) [µM]
K-562 [11]	0.00342
KU-812 [12]	< 0.001
MV4-11 [8]	0.248
Mono-Mac-6 [10]	0.00104
NOMO-1 [9]	0.0225

From the supplement of paper PMC8671470
